Data taken from ChEMBL document CHEMBL3045872, “The Design and Synthesis of a Novel, Orally Active, Selective ETA Antagonist” (Med Chem Res, 2004).

Columns and labels:
[1] = target: T1, Endothelin-1 receptor (Homo sapiens, UniProt P25101); test: Displacement of [I125]ET1 from Homo sapiens (human) ETA receptor expressed in CHO cells; type: cell-based
T1 sequence (P25101 whole entry): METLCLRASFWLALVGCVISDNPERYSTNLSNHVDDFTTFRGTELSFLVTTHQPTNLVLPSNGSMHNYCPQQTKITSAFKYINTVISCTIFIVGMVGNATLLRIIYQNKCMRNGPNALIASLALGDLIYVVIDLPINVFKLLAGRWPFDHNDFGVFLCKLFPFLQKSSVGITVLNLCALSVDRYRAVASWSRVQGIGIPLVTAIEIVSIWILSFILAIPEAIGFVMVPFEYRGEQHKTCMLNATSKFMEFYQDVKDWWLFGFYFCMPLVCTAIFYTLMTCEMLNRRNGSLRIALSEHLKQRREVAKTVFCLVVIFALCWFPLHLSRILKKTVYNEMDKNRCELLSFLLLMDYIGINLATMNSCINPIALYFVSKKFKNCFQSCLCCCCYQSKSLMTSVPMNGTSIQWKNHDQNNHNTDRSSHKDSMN

[2] = target: T2, Endothelin receptor type B (Homo sapiens, UniProt P24530); test: Displacement of [I125]ET1 from Homo sapiens (human) ETB receptor expressed in CHO cells; type: cell-based
T2 sequence (P24530 whole entry): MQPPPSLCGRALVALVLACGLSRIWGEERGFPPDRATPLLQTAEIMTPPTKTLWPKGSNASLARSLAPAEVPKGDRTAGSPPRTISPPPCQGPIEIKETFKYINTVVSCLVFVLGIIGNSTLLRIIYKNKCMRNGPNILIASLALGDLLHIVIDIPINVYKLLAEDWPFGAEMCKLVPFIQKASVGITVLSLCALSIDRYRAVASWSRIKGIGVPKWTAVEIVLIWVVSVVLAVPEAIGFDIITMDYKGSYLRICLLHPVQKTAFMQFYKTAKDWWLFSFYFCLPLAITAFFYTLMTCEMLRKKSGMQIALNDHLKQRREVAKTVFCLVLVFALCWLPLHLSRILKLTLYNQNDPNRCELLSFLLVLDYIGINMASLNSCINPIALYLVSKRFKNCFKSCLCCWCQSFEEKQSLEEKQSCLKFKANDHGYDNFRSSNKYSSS

[3] = system: Rattus norvegicus; test: Unbound clearance in Rattus norvegicus Sprague-Dawley (rat) at 2 mg/kg, iv; type: ADME, organism-based; design: dose 2 mg/kg, route intravenous; settings: in vivo
[4] = Volume of distribution in Rattus norvegicus Sprague-Dawley (rat) at 2 mg/kg, iv; type: ADME, organism-based; design: dose 2 mg/kg, route intravenous; settings: in vivo
[5] = Fraction unbound in Rattus norvegicus Sprague-Dawley (rat) at 2 mg/kg, iv; type: ADME, organism-based; design: dose 2 mg/kg, route intravenous; settings: in vivo
[6] = Drug absorption in Rattus norvegicus Sprague-Dawley (rat) at 2 mg/kg, iv; type: ADME, organism-based; design: dose 2 mg/kg, route intravenous; settings: in vivo, read-out: Drug absorption
[7] = Permeability of the compound across Homo sapiens (human) Caco2 cells; type: ADME, cell-based; settings: Caco-2, read-out: permeability

| IC50 [1] [nM] | IC50 [2] [nM] | CL free [3] [L/h/kg] | Vd [4] [L/kg] | Fu [5] [%] | Fa [6] [%] | Papp [7] [×10⁻⁶ cm/s] | SMILES |
| --- | --- | --- | --- | --- | --- | --- | --- |
| 46 | 217 |  |  |  |  |  | COc1cc(C)ccc1S(=O)(=O)NC(=O)C(c1ccc2c(c1)OCO2)c1cn(C)c2cc(Cl)ccc12 (racemic) |
| 14 | 219 | 104.4 | 4 | 0.005 | 100 | 5 | COc1cc(C)ccc1S(=O)(=O)NC(=O)C(c1ccc2c(c1)OCO2)c1cn(C)c2cc(F)ccc12 (racemic) |
| 1.4 | 906 | 1020 | 5 | 0.002 | 70 | 20 | COc1cc(C)ccc1S(=O)(=O)NC(=O)C(c1ccc2c(c1)OCO2)c1cn(C)c2cc(C(C)=O)ccc12 (racemic) |
| 11 | 421 | 1140 | 2.8 | 0.002 |  | 20 | COc1cc(C)ccc1S(=O)(=O)NC(=O)C(c1ccc2c(c1)OCO2)c1cn(C)c2cc(C#N)ccc12 (racemic) |
| 8.8 | 1140 |  |  |  |  |  | COCc1ccc2c(C(C(=O)NS(=O)(=O)c3ccc(C)cc3OC)c3ccc4c(c3)OCO4)cn(C)c2c1 (racemic) |
| 18 | 240 |  |  |  |  |  | CCOC(=O)c1ccc2c(C(C(=O)NS(=O)(=O)c3ccc(C)cc3OC)c3ccc4c(c3)OCO4)cn(C)c2c1 (racemic) |
|  | 69 |  |  |  |  |  | CCn1cc(C(C(=O)NS(=O)(=O)c2ccc(C(C)C)cc2)c2ccc3c(c2)OCO3)c2ccc(C(=O)O)cc21 (racemic) |
|  | 15 |  |  |  |  |  | CC(C)c1ccc(S(=O)(=O)NC(=O)C(c2ccc3c(c2)OCO3)c2cn(C)c3cc(C(N)=O)ccc23)cc1 (racemic) |
